Source: patent US12264175B2, “Compositions and methods for capping RNAS” (Verve Therapeutics, Inc., priority 2020, dated 2025)

Experiments:
T7 RNA polymerase [1] = molecular target: T1, T7 RNA polymerase (Escherichia phage T7, UniProt P00573); experiment: mRNA capping efficiency at adjusted 5′ end initiator-to-NTP molar ratio; assay type: biochemical; settings: initiator-to-NTP ratio ranging from 1:1 down to 1:1.67; FIG. 4
Excerpt: The amount of capped mRNA produced in an IVT reaction is directly proportional to the ratio of cap to NTPs in the reaction mixture (Stepinski, J. et al., RNA. 2006, 7, 1486-1495). The 5′ end initiator-to-NTP ratio in an IVT reaction impacts the amount of mRNA that becomes capped primarily because cap can compete with NTPs for insertion at the 5′ end of mRNA. A typical initiator-to-NTP ratio for a dinucleotide cap structure is 4:1 and a typical molar initiator-to-NTP ratio for a trinucleotide cap structure is 1:1; where NTP represents either GTP, ATP, CTP, UTP, or modified NTPs such as N1-methyl pseudouridine. At both a 4:1 ratio for a dinucleotide cap and 1:1 ratio for a trinucleotide cap, the resultant mRNA will have a mixture of transcripts of which at least 80% are capped at the 5′ end and up to 20% are uncapped, this is also described as a capping efficiency of 80%. Capping efficiency is the measured amount of capped mRNA divided by the total amount of capped mRNA plus uncapped mRNA. Therefore, trinucleotide caps can be considered more efficient capping compounds than dinucleotide caps since less input cap is required to produce a final mRNA product that contains a similar amount of capped 5′ ends. The ability of trinucleotide caps to produce a high (>90%) capping efficiency at a lower initiator-to-NTP ratio than dinucleotide caps, in some instances, can be attributed to the increased affinity of a trinucleotide cap for the DNA template. In some cases, the optimal cap-to-NTP ratio may vary with the composition of the cap structure, wherein modification of cap structures may affect capping efficiency. […]
The amount of capped mRNA relative to the total amount of mRNA that is present, i.e. capping efficiency, can be measured by numerous methods well known in the art. […]

[2] = test system: primary human liver hepatocytes (hPH); experiment: ABE protein levels by ELISA after mRNA transfection of primary human hepatocytes; assay type: cell-based; settings: ABE mRNA transfected to hPH cells, FIG. 6
Experimental: Primary human liver hepatocytes (hPH), primary cynomolgus liver hepatocytes (cPH), or primary mouse liver hepatocytes (mPH) are cultured per the manufacturer's protocol. In brief, the cells are thawed and resuspended in hepatocyte thawing medium followed by centrifugation at 100 g for 10 min at 4° C. The supernatant is discarded, and the pelleted cells resuspended in hepatocyte plating medium. Each vial contains ˜5 million cells that are used for plating one 24-well plate. Plated cells are allowed to settle and adhere for 4-6 h in a tissue culture incubator at 37° C. under 5% CO2 atmosphere. After incubation, cells are checked for monolayer formation. The incubating media is then replaced with fresh hepatocyte maintenance media The cells thus are ready for transfection using a transfection agent such as MessengerMAX. Solution A: desired amount of single guide RNA (sgRNA) is mixed with 1:1 wt ratio of mRNA in OptiMEM. Solution B: MessengerMAX in OptiMEM. After mixing solutions A and B, the mixture is incubated at room temperature for 20 minutes, and then the incubated solution is added dropwise to each well of cells. The cells are then allowed to remain at 37° C. for 3 days. […] For example, mRNA with 5′ end region motifs, 1007a and 1107a, were transfected to hPH cells as described above, the cells were lysed, and ABE protein levels were measured by ELISA. […]

T7 RNA polymerase [3] = molecular target: T1, T7 RNA polymerase; experiment: One-pot IVT preparation of 5′ capped mRNA (production yield, full-length purity); assay type: biochemical
Excerpt: The 5′ end initiator, 1007a, (FIG. 1A) was used to prepare capped mRNAs that encode for ABE and luciferase proteins. In this Example and for all others described herein, the ABE mRNA sequence was MA004 (SEQ. 0001) and the luciferase mRNA sequence was the Photinus pyralis (Firefly) luciferase sequence described in NCBI reference sequence XM_031473197.1. These mRNA can be produced by different methods well known in the art. One of such methods used herein was in vitro transcription (IVT) using T7 polymerase; or in other embodiments, additional RNA polymerase variants. This IVT reaction to produce mRNA used a linearized DNA template that comprised a T7 polymerase promoter and associated regulatory sequences, mRNA coding sequence (CDS), 3′ and 5′ untranslated regions (UTRs), poly A tail, and additional sequence elements to facilitate and modulate mRNA stability and in vivo performance. Prior to IVT, the DNA template was in the form of a plasmid; in other embodiments the DNA template is in the form of a PCR product, synthetic DNA product, or any other double-stranded DNA construct. Linearization of the DNA template with a restriction digestion enzyme was performed in order to promote run-off transcription. The typical IVT reaction included T7 polymerase, DNA template, RNase inhibitor, cap analog, inorganic pyrophosphatase, and the naturally occurring ribonucleoside triphosphates (NTPs) such as GTP, ATP, CTP, and N1-methyl pseudouridine triphosphosphate; in some embodiments NTPs include UTP or modified NTPs such as pseudouridine, 5′methyl cytidine, 5-methoxy uridine, N6-methyl adenosine, and N4-acetyl cytidine. The 1007a 5′ end initiator was added to the IVT reaction along with ATP, GTP, CTP, and N1-methyl pseudouridine triphosphate at a 1:1 initiator-to-NTP molar ratio and additional ratios described in Example 5 (B). Poly A tail was encoded in the DNA template that was added to the mRNA during transcription; in some instances, poly A tail is added to the mRNA after the IVT reaction using an RNA ligase enzyme. Finally, T7 RNA polymerase was added to the mixture and the IVT reaction was run at 37° C. for about 1-4 hours. After IVT, DNase was added to the transcription mixture to remove DNA template; in some instances, residual DNA is removed with chromatography. This mRNA was purified to remove residual reaction products and impurities, and stored in 1 mM citrate buffer. Characterization of production yield and mRNA full-length purity was performed by UV spectrometry and capillary gel electrophoresis methods, which are known in the art. […] Similar IVT and purification process are used to produce mRNA encoding SpCas9, Cas12b, CBE, and other ABEs; in all cases the DNA template, reaction conditions, and purification parameters are optimized for the specific gene of interest.
Similarly, ABE encoding mRNA with 5′ end region, 1107a, (FIG. 1B) was produced and characterized as described in the paragraph above.

T7 RNAP = T7 RNAP (Escherichia phage T7, UniProt P00573); settings: first initiating NTP / guanosine; J. Mol. Biol. (2007) 370, 256-268; cited from earlier work
Chain of T7 RNAP (P00573 whole entry): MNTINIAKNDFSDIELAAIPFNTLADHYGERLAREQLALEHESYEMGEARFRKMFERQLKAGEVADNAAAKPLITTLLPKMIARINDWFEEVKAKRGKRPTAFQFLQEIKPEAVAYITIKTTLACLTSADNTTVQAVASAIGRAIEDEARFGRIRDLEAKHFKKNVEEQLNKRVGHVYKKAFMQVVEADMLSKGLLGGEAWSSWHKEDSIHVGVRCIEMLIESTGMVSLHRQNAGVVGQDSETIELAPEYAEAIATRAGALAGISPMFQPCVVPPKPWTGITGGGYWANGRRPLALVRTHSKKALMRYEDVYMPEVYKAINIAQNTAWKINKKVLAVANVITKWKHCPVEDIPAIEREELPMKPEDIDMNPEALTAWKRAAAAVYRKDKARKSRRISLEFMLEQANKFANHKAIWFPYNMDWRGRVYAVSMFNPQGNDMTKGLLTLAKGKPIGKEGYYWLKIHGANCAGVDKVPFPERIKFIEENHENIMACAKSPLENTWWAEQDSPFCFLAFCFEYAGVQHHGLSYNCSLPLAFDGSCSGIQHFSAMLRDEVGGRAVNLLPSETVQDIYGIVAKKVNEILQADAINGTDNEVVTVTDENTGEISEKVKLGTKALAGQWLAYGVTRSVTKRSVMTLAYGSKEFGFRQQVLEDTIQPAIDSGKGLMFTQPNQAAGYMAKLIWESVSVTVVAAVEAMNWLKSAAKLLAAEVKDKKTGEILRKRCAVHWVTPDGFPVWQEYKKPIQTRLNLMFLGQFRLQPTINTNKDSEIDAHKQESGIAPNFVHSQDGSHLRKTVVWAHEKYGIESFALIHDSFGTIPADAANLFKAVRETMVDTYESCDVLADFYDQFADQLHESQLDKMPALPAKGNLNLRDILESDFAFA

T1 sequence (P00573 whole entry): as above

SMILES	capping efficiency (T7 RNA polymerase [1]) [%]	ABE protein levels as compared to mRNA with 5′ end region motif 1002a [2]	final production yield of mRNA (T7 RNA polymerase [3]; ABE encoding mRNA made with the 5′ end initiator, T7 IVT, FIG. 2)	mRNA full-length purity (T7 RNA polymerase [3]; ABE encoding mRNA made with the 5′ end initiator, capillary gel electrophoresis, FIG. 3)	amount of full-length mRNA produced (T7 RNA polymerase [3]; initiator-to-NTP ratio ranging from 1:1 down to 1:5, FIG. 3)	Kd (T7 RNAP) [µM]
COC1C(OP(=O)(O)OCC2OC(n3cnc4c(=O)[nH]c(N)nc43)C(O)C2O)C(COP(=O)(O)OP(=O)([S-])OP(=O)(O)OCC2OC(n3c[n+](C)c4c(=O)[nH]c(N)nc43)C(O)C2O)OC1n1cnc2c(N)ncnc21 (stereo not drawn) [1107a, m^7G(ppsp)Am(p)G]	> 90	similar	about 3.3 mg per 1 ml of IVT reaction	about 86%	did not reduce	
Nc1nc2c(ncn2[C@@H]2O[C@H](COP(=O)(O)OP(=O)(O)OP(=O)(O)O)[C@@H](O)[C@H]2O)c(=O)[nH]1 [GTP]						2000
